# What was measured:
# [1] = system: 6-OHDA-induced PD mouse model; set-up: method as in PMID 31689937; settings: cited from earlier work
# [2] = set-up: method as in PMID 31689937; settings: intraperitoneal administration in mice; cited from earlier work
# [3] = system: combinatorial α-synucleinopathy PD mouse model; experiment: Sporadic PD mouse model, combinatorial PFF and rAAV-αSyn nigral injection, PCiv diet; format: in vivo
# Experimental: Figure 4 PCiv administration suppresses PFF-induced dopaminergic neurodegeneration, α-synuclein aggregation, and motor dysfunction in vivo. (A) Bradykinesia (slowness of movement) assessed by pole test for control and combinatorial PFF/AAV-αSyn-injected mice with or without PCiv treatment (50 mg PCiv/kg diet for 30 days, n = 5 per group). Control mice are those nigrally injected with PBS and AAV-GFP. (B) Motor coordination of the mice in the experimental group was assessed by an accelerated rotarod test (n = 5 per group). (C) Representative tyrosine hydroxylase (TH) immunohistochemical staining of the ventral midbrains of control and combinatorial α-synucleinopathy-PD mice fed with a PCiv diet (50 mg/kg diet for 30 days) or normal chow diet. (D) Stereological assessment of TH-positive dopaminergic neurons in the substantia nigra pars compacta of the injection side of the indicated mice groups (n = 5 mice per group). (E) Representative immunofluorescence images of pS129-αSyn and TH in the substantia nigra coronal sections of the indicated experimental mice groups. (F) Quantification of relative pS129-αSyn fluorescence intensities in the TH-positive dopamine neurons of the substantia nigra sections from the indicated experimental groups (n = 28 cells from 3 mice per group). The quantified data are expressed as means ± SEMs. Statistical significance was determined by an ANOVA test with Tukey’s post hoc analysis, ** p < 0.01, *** p < 0.001, and **** p < 0.0001. ns = nonsignificant.
# All animal experiments were approved by the Ethical Committee of Sungkyunkwan University Animal Care and Use Committee of Gachon University (Approval number: […]2019-06-15-1; GIACUC-R2021006) and were conducted in accordance with all applicable international guidelines. Male C57BL/6N mice (2 months old) were obtained from Orient Bio (Suwon, Korea). The animals were housed in air-controlled rooms with a 12-h dark/light cycle. Mice and rats were provided ad libitum access to diet and water. All efforts were made to minimize animal suffering and the number of animals used in the experiments. A synthetic PCiv diet was supplied to the mice. The PCiv diet administration (50 mg/kg/day for PFF PD mouse models) began on day 0 and was continued for 30 days. Intranigral injection of the rAAV-αSyn and PFF mixture was performed on day 0. Mice brains were prepared for analysis, as described below. To test the therapeutic effects of PCiv, we prepared a diet containing PCiv. To facilitate each mouse consuming 2 mg of PCiv per day, we generated a mixture of 400 mg of PCiv per kg of rodent diet and then supplied it to the mice.
# The α-synucleinopathy PD model was created by co-injecting PFF (10 µg; ventral tegmental area: AP, −3.4 mm; ML, −0.5 mm; DV, −4.3 mm) and rAAV-αSyn (AAV serotype 1, 1 µL of titer 5 × 1011 GC/mL; substantia nigra pars compacta: AP, −3.4 mm; ML, −1.3 mm; DV, −4.3 mm) into a 2-month-old C57BL/6N mouse. rAAV-GFP was used as the control. PFF was prepared from pure recombinant human α-synuclein (Proteos, Inc., Kalamazoo, MI, USA) according to a previous report. Before use, sonicated PFFs were evaluated using Western blotting and a functional assay in cortical neuron cultures (pS129-αSyn induction and neurotoxicity). After co-injecting PFF and rAAV-αSyn, PD models were fed a PCiv or normal diet for a month. For stereological analysis, the animals were perfused 1 month after intranigral injection and fixed intracardially with ice-cold PBS. The tissues were post-fixed with 4% paraformaldehyde overnight. The fixed mice brains were cryoprotected in 30% sucrose (wt/vol) in PBS and subsequently processed for immunohistochemistry.
# Coronal sections (thickness, 35 µm) of the fixed and cryoprotected brains were cut, including the substantia nigra. […]
# [4] = PD mice, PCiv diet 50 mg/kg diet for 30 days
SMILES,neuroprotection [1],brain distribution [2],"total α-synuclein expression ([3]; PBS+AAV-GFP and PFF+AAV-αSyn injection groups, PCiv diet)","development of motor impairment (pole and rotarod tests) ([3]; PD mice, PCiv diet 50 mg per kg diet, four weeks)","dopaminergic neurons (TH-positive, substantia nigra) [3, 4]","α-synuclein aggregation pathology (pS129-αSyn in TH-positive dopamine neurons) [3, 4]","dopamine neuron viability in control mouse group ([3]; control mice (PBS + AAV-GFP), PCiv diet)",overt toxicity ([3]; in cells and in vivo mouse models)
"C/C=C(\C)C(=O)O[C@@H]1c2c(ccc3ccc(=O)oc23)OC(C)(C)[C@H]1OC(C)=O (relative stereo) [PCiii, peucedanocoumarin III]",neuroprotective,demonstrated brain distribution,,,,,,
"C/C=C(\C)C(=O)O[C@H]1[C@H](OC(C)=O)c2c(ccc3ccc(=O)oc23)OC1(C)C (relative stereo) [PCiv, trans-4′-acetyl-3′-tigloylkhellactone]",,,no alteration,almost completely prevented,marked protection,largely blocked,no effect,did not observe any overt toxicity
